{
  "source": "patent US20160007541A1",
  "about": "“Increasing Harvest (Yield) of Crop Plants Utilizing Thermodynamic Laws on a Whole Plant Basis to Detect Optimal Periods for Exothermic Energy Versus Endothermic Energy Needs” (Stoller Enterprises, Inc., priority 2014, published 2016)",
  "test_system": "tomato plants",
  "test": "Tomato yield, Brix and taste after cobalt via drip irrigation (Table 4)",
  "assay_type": "in vivo",
  "details": "base fertility plus cobalt @ 1 pt/acre over 5 weeks",
  "data": [
    {"smiles": "[Co]", "note": "[cobalt]", "values": [
      {"measurement": "Taste test 14 scientific personnel", "setting": "base 2", "value": 2.8},
      {"measurement": "% Brix (sugars)", "setting": "base 4.8", "value": 5.5, "unit": "%"},
      {"measurement": "Yield (No. of tons per acre)", "setting": "base 29.6", "value": 33.9, "unit": "tons per acre"},
      {"measurement": "Yield (number of tomato fruits per acre × 1,000)", "setting": "base 244", "value": "288 fruits per acre × 1,000"}
    ]}
  ]
}
